# Experimental data published in PubChem BioAssay (NCI).
#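 Growth conditions: 96-well plates. Treatment: test compound, 48 hours, 5 concentrations. Analysis: linear interpolation between bracketing concentrations; unreached endpoints set to highest concentration. GI50 = concentration required for 50% inhibition of growth. TGI is the concentration that stops growth completely.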
# How the values were obtained:
# Test in all cases: DTP human tumour cell line panel, 48 h
# [1] = system: OVCAR-4 ovarian
# [2] = system: T-47D breast
# [3] = system: NCI-H226 lung
# [4] = system: COLO 205 colon
# [5] = system: A498 renal
# [6] = system: RPMI-8226 leukemia
# [7] = system: CCRF-CEM leukemia
# [8] = system: SW-620 colon
# [9] = system: U251 CNS
# [10] = system: SF-539 CNS
# [11] = system: UACC-257 melanoma
# [12] = system: NCI-H460 lung
# [13] = system: HOP-92 NSCLC
# [14] = system: HCT-116 colon
# [15] = system: TK-10 renal
# [16] = system: OVCAR-5 ovarian
# [17] = system: LOX IMVI melanoma
# [18] = system: MDA-MB-435
# [19] = system: MDA-MB-231 breast
# [20] = system: KM12 colon
# [21] = system: SK-MEL-28 melanoma
# [22] = system: K-562 leukemia
# [23] = system: OVCAR-8 ovarian
# [24] = system: MOLT-4 leukemia
# [25] = system: UO-31 renal
# [26] = system: HOP-62 NSCLC
# [27] = system: RXF 393 renal
# [28] = system: 786-0 renal
# [29] = system: BT-549 breast
# [30] = system: MDA-MB-468 breast
# [31] = system: SK-MEL-5 melanoma
# [32] = system: SR leukemia
# [33] = system: CAKI-1 renal
# [34] = system: SK-OV-3 ovarian
# [35] = system: A549 NSCLC
# [36] = system: HCC-2998 colon
# [37] = system: MALME-3M melanoma
# [38] = system: EKVX NSCLC
# [39] = system: HL-60(TB) leukemia
# [40] = system: PC-3 prostate
# [41] = system: OVCAR-3 ovarian
# [42] = system: IGROV1 ovarian
# [43] = system: NCI/ADR-RES ovarian
# [44] = system: SN12C renal
# [45] = system: HS 578T breast
# [46] = system: ACHN renal
# [47] = system: DU-145 prostate
# [48] = system: MCF7 breast
# [49] = system: HT29 colon
# [50] = system: HCT-15 colon
# [51] = system: SNB-19 CNS
# [52] = system: SF-268 CNS
# [53] = system: UACC-62 melanoma
# [54] = system: SF-295 CNS
# [55] = system: NCI-H522 lung
# [56] = system: NCI-H23 lung
# [57] = system: M14 melanoma
compound,measurement,setting,value
Cc1ccc(-c2ccc(SCC(=O)Nc3ccc(Cl)c(C(F)(F)F)c3)nn2)cc1,GI50,[1],5.86 µM
same,TGI,[1],> 100 µM
same,GI50,[2],0.594 µM
same,TGI,[2],> 100 µM
same,GI50,[3],8.36 µM
same,TGI,[3],> 100 µM
same,GI50,[4],1.06 µM
same,TGI,[4],3.51 µM
same,GI50,[5],3.75 µM
same,TGI,[5],38 µM
same,GI50,[6],0.986 µM
same,TGI,[6],> 100 µM
same,GI50,[7],0.459 µM
same,TGI,[7],> 100 µM
same,GI50,[8],0.393 µM
same,TGI,[8],> 100 µM
same,GI50,[9],1.47 µM
same,TGI,[9],38.5 µM
same,GI50,[10],0.754 µM
same,TGI,[10],3.35 µM
same,GI50,[11],12.1 µM
same,TGI,[11],> 100 µM
same,GI50,[12],3.22 µM
same,TGI,[12],> 100 µM
same,GI50,[13],2.95 µM
same,TGI,[13],59.5 µM
same,GI50,[14],0.445 µM
same,TGI,[14],> 100 µM
same,GI50,[15],12.7 µM
same,TGI,[15],52.8 µM
same,GI50,[16],3.24 µM
same,TGI,[16],> 100 µM
same,GI50,[17],2.48 µM
same,TGI,[17],> 100 µM
same,GI50,[18],0.22 µM
same,TGI,[18],0.513 µM
same,GI50,[19],1.15 µM
same,TGI,[19],19.3 µM
same,GI50,[20],0.732 µM
same,TGI,[20],> 100 µM
same,GI50,[21],5.77 µM
same,TGI,[21],> 100 µM
same,GI50,[22],0.419 µM
same,TGI,[22],> 100 µM
same,GI50,[23],2.71 µM
same,TGI,[23],> 100 µM
same,GI50,[24],0.578 µM
same,TGI,[24],> 100 µM
same,GI50,[25],3.16 µM
same,TGI,[25],> 100 µM
same,GI50,[26],1.23 µM
same,TGI,[26],24.1 µM
same,GI50,[27],1.1 µM
same,TGI,[27],5.93 µM
same,GI50,[28],0.892 µM
same,TGI,[28],37.7 µM
same,GI50,[29],0.829 µM
same,TGI,[29],46.2 µM
same,GI50,[30],0.371 µM
same,TGI,[30],2.25 µM
same,GI50,[31],0.435 µM
same,TGI,[31],8.76 µM
same,GI50,[32],0.34 µM
same,TGI,[32],> 100 µM
same,GI50,[33],1.72 µM
same,TGI,[33],> 100 µM
same,GI50,[34],3.82 µM
same,TGI,[34],65.3 µM
same,GI50,[35],5.34 µM
same,TGI,[35],> 100 µM
same,GI50,[36],1.29 µM
same,TGI,[36],10.5 µM
same,GI50,[37],0.589 µM
same,TGI,[37],36.5 µM
same,GI50,[38],2.93 µM
same,TGI,[38],> 100 µM
same,GI50,[39],0.319 µM
same,TGI,[39],2.32 µM
same,GI50,[40],0.878 µM
same,TGI,[40],> 100 µM
same,GI50,[41],0.409 µM
same,TGI,[41],1.94 µM
same,GI50,[42],1.46 µM
same,TGI,[42],46.4 µM
same,GI50,[43],0.393 µM
same,TGI,[43],2.14 µM
same,GI50,[44],4.85 µM
same,TGI,[44],> 100 µM
same,GI50,[45],1.05 µM
same,TGI,[45],8.14 µM
same,GI50,[46],6.84 µM
same,TGI,[46],> 100 µM
same,GI50,[47],2.37 µM
same,TGI,[47],17.9 µM
same,GI50,[48],0.563 µM
same,TGI,[48],> 100 µM
same,GI50,[49],0.512 µM
same,TGI,[49],> 100 µM
same,GI50,[50],0.405 µM
same,TGI,[50],> 100 µM
same,GI50,[51],3.21 µM
same,TGI,[51],56.6 µM
same,GI50,[52],9.67 µM
same,TGI,[52],> 100 µM
same,GI50,[53],0.531 µM
same,TGI,[53],39.4 µM
same,GI50,[54],0.5 µM
same,TGI,[54],8.22 µM
same,GI50,[55],0.528 µM
same,TGI,[55],4 µM
same,GI50,[56],2 µM
same,TGI,[56],32.7 µM
same,GI50,[57],0.538 µM
same,TGI,[57],> 100 µM
